Drawing on patent publication US12543738B2 (Bayer Aktiengesellschaft, priority 2020, dated 2026), this text covers chromatographic logP, pest or weed control and inhibition for six compounds.

A word on the chromatographic logP: it is lipophilicity estimated from chromatographic retention. Read a high chromatographic logP as higher lipophilicity. A word on the inhibition: it is the change of the read-out against control, counted positive when it falls.

Data set [1] can be described thus: Measurement of LogP values by HPLC on reversed phase columns (EEC directive 79/831 Annex V.A8). The class given is physicochemical. Particulars: method [a]: LC-UV, acidic range, 0.1% formic acid in water and acetonitrile; compounds of formula (I-1), Table 1. On the procedure:
Calibration was done with straight-chain alkan2-ones (with 3 to 16 carbon atoms) with known LogP values (measurement of LogP values using retention times with linear interpolation between successive alkanones). Lambda-max-values were determined using UV-spectra from 200 nm to 400 nm and the peak values of the chromatographic signals

For a further data set, the system named is Alternaria brassicae. In words: In vivo preventive test on Alternaria brassicae (leaf spot on radish or cabbage). As to conditions: 144 h, 500 ppm of active ingredient, preventive spray on radish or cabbage, evaluated 6 days after inoculation, read-out: efficacy. On the procedure:
The active ingredients were made soluble and homogenized in a mixture of Dimethyl sulfoxide/Acetone//Tween® 80 and then diluted in water to the desired concentration. The young plants of radish or cabbage were treated by spraying the active ingredient prepared as described above. Control plants were treated only with an aqueous solution of Acetone/Dimethyl sulfoxide/Tween® 80. After 24 hours, the plants were contaminated by spraying the leaves with an aqueous suspension of Alternaria brassicae spores.

Another data set deals with Pyricularia Oryzae. The data set can be described thus: microbe, parasite or virus in culture. As to conditions: 120 h, read-out: efficacy (inhibition of fungal growth). The class given is cell-based.
Data set [2] concerns Colletotrichum lindemuthianum. The data set can be described thus: In vivo preventive test on Colletotrichum lindemuthianum (leaf spot on bean). Particulars: 168 h, 500 ppm of active ingredient, preventive spray on bean, evaluated 7 days after inoculation, read-out: efficacy. As for the experimental part: The active ingredients were made soluble and homogenized in a mixture of Dimethyl sulfoxide/Acetone//Tween® 80 and then diluted in water to the desired concentration. The young plants of bean were treated by spraying the active ingredient prepared as described above. Control plants were treated only with an aqueous solution of Acetone/Dimethyl sulfoxide/Tween® 80. After 24 hours, the plants were contaminated by spraying the leaves with an aqueous suspension of Colletotrichum lindemuthianum spores.

A further data set relates to Botrytis cinerea. The data set can be described thus: In vivo preventive test on Botrytis cinerea (grey mould). Particulars: 500 ppm of active ingredient, preventive spray on gherkin or cabbage, evaluated 4 to 5 days after inoculation, read-out: efficacy. On the procedure:
The active ingredients were made soluble and homogenized in a mixture of Dimethyl sulfoxide/Acetone//Tween® 80 and then diluted in water to the desired concentration. The young plants of gherkin or cabbage were treated by spraying the active ingredient prepared as described above. Control plants were treated only with an aqueous solution of Acetone/Dimethyl sulfoxide/Tween® 80. After 24 hours, the plants were contaminated by spraying the leaves with an aqueous suspension of Botrytis cinerea spores.

Another data set has as its system Sphaerotheca fuliginea. In words: In vivo preventive test on Sphaerotheca fuliginea (powdery mildew on cucurbits). As to conditions: Podosphaera fuliginea, 192 h; 500 ppm of active ingredient; preventive spray on gherkin; evaluated 8 days after inoculation; read-out: efficacy. On the procedure:
The active ingredients were made soluble and homogenized in a mixture of Dimethyl sulfoxide/Acetone//Tween® 80 and then diluted in water to the desired concentration. The young plants of gherkin were treated by spraying the active ingredient prepared as described above. Control plants were treated only with an aqueous solution of Acetone/Dimethyl sulfoxide/Tween® 80. After 24 hours, the plants were contaminated by spraying the leaves with an aqueous suspension of Sphaerotheca fuliginea spores.

The test system of data set [3] is Colletotrichum lindemuthianum. In words: Colletotrichum lindemuthianum in vitro cell test. As to conditions: 144 h, 20 ppm of active ingredient, liquid culture, 6 days incubation, read-out: efficacy (inhibition of fungal growth). The class given is cell-based. As for the experimental part: (§1) • Solvent: DMSO • Culture medium: 14.6 g anhydrous D-glucose (VWR), 7.1 g Mycological Peptone (Oxoid), 1.4 g granulated Yeast Extract (Merck), QSP 1 liter • Inoculum: spores suspension Fungicides were solubilized in DMSO and the solution used to prepare the required range of concentrations. […] A spore suspension of C. lindemuthianum was prepared and diluted to the desired spore density. Fungicides were evaluated for their ability to inhibit spores germination and mycelium growth in liquid culture assay. The compounds were added in the desired concentration to the culture medium with spores. After 6 days incubation, fungi-toxicity of compounds was determined by spectrometric measurement of mycelium growth. Inhibition of fungal growth was determined by comparing the absorbance values in wells containing the fungicides with the absorbance in control wells without fungicides.

A further data set deals with Pyrenophora teres. The data set can be described thus: In vivo preventive test on Pyrenophora teres (net blotch on barley). As to conditions: 240 h, 500 ppm of active ingredient, preventive spray on barley, evaluated 10 days after inoculation, read-out: efficacy. On the procedure: The active ingredients were made soluble and homogenized in a mixture of Dimethyl sulfoxide/Acetone//Tween® 80 and then diluted in water to the desired concentration. The young plants of barley were treated by spraying the active ingredient prepared as described above. Control plants were treated only with an aqueous solution of Acetone/Dimethyl sulfoxide/Tween® 80. After 24 hours, the plants were contaminated by spraying the leaves with an aqueous suspension of Pyrenophora teres spores.

The next data set relates to Fusarium culmorum. The data set can be described thus: Fusarium culmorum in vitro cell test. The class given is cell-based. As to conditions: 96 h, 20 ppm of active ingredient, liquid culture, 4 days incubation, read-out: efficacy (inhibition of fungal growth). As for the experimental part: • Solvent: DMSO • Culture medium: 14.6 g anhydrous D-glucose (VWR), 7.1 g Mycological Peptone (Oxoid), 1.4 g granulated Yeast Extract (Merck), QSP 1 liter • Inoculum: spore suspension • Fungicides were solubilized in DMSO and the solution used to prepare the required range of concentrations. The final concentration of DMSO used in the assay was ≤1%.
A spore suspension of F. culmorum was prepared and diluted to the desired spore density.
Fungicides were evaluated for their ability to inhibit spore germination and mycelium growth in liquid culture assay. The compounds were added in the desired concentration to the culture medium with spores. After 4 days incubation, fungi-toxicity of compounds was determined by spectrometric measurement of mycelium growth. Inhibition of fungal growth was determined by comparing the absorbance values in wells containing the fungicides with the absorbance in control wells without fungicides.

A further data set relates to Alternaria alternata. The data set can be described thus: Alternaria alternata in vitro cell test. The class given is cell-based. Particulars: 120 h, 20 ppm of active ingredient, liquid culture, 5 days incubation, read-out: efficacy (inhibition of fungal growth). On the procedure: as §1, with “of A. alternata” for “of C. lindemuthianum”, “inhibit spore” for “inhibit spores”, “After 5” for “After 6”

The test system of the next data set is Septoria tritici. The data set can be described thus: Septoria tritici in vitro cell test. Particulars: Zymoseptoria tritici, 168 h; 20 ppm of active ingredient; liquid culture, 7 days incubation; read-out: efficacy (inhibition of fungal growth). It is filed as cell-based. As for the experimental part: • Solvent: DMSO • Culture medium: 1 g KH2PO4 (VWR), 1 g K2HPO4 (VWR), 0.5 g Urea (VWR), 3 g KNO3 (Prolabo), 10 g saccharose (VWR), 0.5 g MgSO4, 7H2O (Sigma), 0.07 g CaCl2, 2H2O (Prolabo), 0.2 mg MnSO4, H2O (Sigma), 0.6 mg CuSO4, 5H2O (Sigma), 7.9 mg ZnSO4, 7H2O (Sigma), 0.1 mg H3BO3 (Merck), 0.14 mg NaMoO4, 2H2O (Sigma), 2 mg thiamine (Sigma), 0.1 mg biotine (VWR), 4 mg FeSO4, 7H2O (Sigma), QSP 1 liter • Inoculum: spore suspension Fungicides were solubilized in DMSO and the solution used to prepare the required range of concentrations. […] A spore suspension of S. tritici was prepared and diluted to the desired spore density. Fungicides were evaluated for their ability to inhibit spore germination and mycelium growth in liquid culture assay. The compounds were added in the desired concentration to the culture medium with spores. […] Inhibition of fungal growth was determined by comparing the absorbance values in wells containing the fungicides with the absorbance in control wells without fungicides.

Consider `Cc1ccc(CC2CON=C(c3cc(C)nnc3Oc3cccc(C4(F)CC4)c3)N2)c(C)c1` (racemic) [Compound I-015, (5RS)-5-(2,4-dimethylbenzyl)-3-{3-[3-(1-fluorocyclopropyl)phenoxy]-6-methylpyridazin-4-yl}-5,6-dihydro-4H-1,2,4-oxadiazine], for which the chromatographic logP in data set [1] was determined as 3.78. The pest or weed control at 500 ppm (in the data set on Alternaria brassicae; in data set [2]; in the data set with Botrytis cinerea; in the data set on Sphaerotheca fuliginea; in the data set on Pyrenophora teres) was 90 to 100% in each case. The inhibition at 20 ppm in the data set with Pyricularia Oryzae was 90 to 100%; in [3], 90 to 100%; in the data set with Fusarium culmorum, 80 to 89%; with Alternaria alternata, 90 to 100%.
In the case of `Cc1ccc(CC2CON=C(c3cc(C(C)O)nnc3Oc3cccc(C4CC4)c3)N2)c(C)c1` (stereo not drawn) [Compound I-016, 1-{6-(3-cyclopropylphenoxy)-5-[5-(2,4-dimethylbenzyl)-5,6-dihydro-4H-1,2,4-oxadiazin-3-yl]pyridazin-3-yl}ethanol], the chromatographic logP in data set [1] came to 3.55. The pest or weed control at 500 ppm in the data set with Alternaria brassicae was 90 to 100%; in data set [2] it was 90 to 100%; with Botrytis cinerea it was 90 to 100%; in the data set with Sphaerotheca fuliginea it was 90 to 100%; in the data set with Pyrenophora teres it was 80 to 89%. The inhibition at 20 ppm (with Pyricularia Oryzae; with Septoria tritici; in [3]; in the data set on Alternaria alternata) was 90 to 100% each time.
Take `Cc1cc(C)cc(CC2CON=C(c3cc(C)nnc3Oc3cccc(C)c3F)N2)c1` (racemic) [Compound I-008, (5RS)-5-(3,5-dimethylbenzyl)-3-[3-(2-fluoro-3-methylphenoxy)-6-methylpyridazin-4-yl]-5,6-dihydro-4H-1,2,4-oxadiazine]: in [1], the chromatographic logP is 3.85. Besides, the pest or weed control at 500 ppm (in the data set on Alternaria brassicae; in data set [2]; in the data set with Botrytis cinerea; with Sphaerotheca fuliginea; with Pyrenophora teres) was 90 to 100% throughout. The inhibition at 20 ppm (in the data set with Pyricularia Oryzae; with Septoria tritici; in data set [3]; with Alternaria alternata) was 90 to 100% throughout.
In data set [1], `Cc1ccc(C)c(CC2CON=C(c3cc(C)nnc3Oc3cccc(C)c3F)N2)c1` (racemic) [Compound I-013, (5RS)-5-(2,5-dimethylbenzyl)-3-[3-(2-fluoro-3-methylphenoxy)-6-methylpyridazin-4-yl]-5,6-dihydro-4H-1,2,4-oxadiazine] showed a chromatographic logP of 3.69. The pest or weed control at 500 ppm in the data set on Alternaria brassicae was in the range of 90 to 100%; in data set [2], 90 to 100%; in the data set on Botrytis cinerea, 90 to 100%; in the data set with Sphaerotheca fuliginea it was 90 to 100%; with Pyrenophora teres, 80 to 89%. Besides, the inhibition at 20 ppm in the data set with Pyricularia Oryzae lay within 80 to 89%; in the data set with Septoria tritici, 90 to 100%; in [3], 90 to 100%; in the data set with Alternaria alternata, 90 to 100%.
With `CC(O)c1cc(C2=NOCC(Cc3ccc(Cl)cc3Cl)N2)c(Oc2cccc(C3CC3)c2F)nn1` (stereo not drawn) [Compound I-023, 1-{6-(3-cyclopropyl-2-fluorophenoxy)-5-[5-(2,4-dichlorobenzyl)-5,6-dihydro-4H-1,2,4-oxadiazin-3-yl]pyridazin-3-yl}ethanol], the chromatographic logP in data set [1] turned out to be 3.87. For the same compound, the pest or weed control at 500 ppm (with Alternaria brassicae; in data set [2]; in the data set with Botrytis cinerea; in the data set with Sphaerotheca fuliginea; in the data set with Pyrenophora teres) was 90 to 100% throughout. The inhibition at 20 ppm (in the data set with Pyricularia Oryzae; in data set [3]; in the data set with Fusarium culmorum; with Alternaria alternata) was 90 to 100% throughout.
In [1], `C=C(OCC)c1cc(C2=NOCC(Cc3ccc(Cl)cc3Cl)N2)c(Oc2cccc(C3CC3)c2F)nn1` (racemic) [Compound I-020, (5RS)-3-[3-(3-cyclopropyl-2-fluorophenoxy)-6-(1-ethoxyvinyl)pyridazin-4-yl]-5-(2,4-dichlorobenzyl)-5,6-dihydro-4H-1,2,4-oxadiazine] registered a chromatographic logP of 5.41. The pest or weed control at 500 ppm (in the data set with Alternaria brassicae; in data set [2]; in the data set on Botrytis cinerea; in the data set on Sphaerotheca fuliginea; in the data set on Pyrenophora teres) was 90 to 100% in each case. Also, the inhibition at 20 ppm (with Pyricularia Oryzae; in the data set on Septoria tritici; in [3]; in the data set with Alternaria alternata) was 90 to 100% throughout.
